This is an account of results in patent publication US5202266A, “25-hydroxy vitamin D3 derivatives, process for their production, and assay method using the same” (Asahi Kasei Kogyo Kabushiki Kaisha, priority 1987, dated 1993).

The subject of data set [1] is Anti-25-hydroxy vitamin D3 rabbit serum. Put plainly: Radio immunoassay standard curve of 25-hydroxy vitamin D3 using the labeled derivative as tracer. To be noted: RIA; for standard curve result by methylene chain length n in R1: FIG. 4, n=1, n=2, n=3 compared; for sensitivity of assay, monoiodine vs diiodine [125I] labeling: FIG. 3. The class given is binding. The method, then:
A standard ethanol solution of 25-hydroxy vitamin D3 (256 pg/20 μl) was diluted stepwise by two-fold dilution to prepare 128 pg/20 μl, 64 pg/μl, 32 pg/20 μl, 16 pg/20 μl, 8 pg/20 μl, 4 pg/20 μl and 2 pg/20 μl samples.
Samples (20 μl) of each concentration hereinabove were pipetted into three tubes. Ethanol solutions, each 20 μl, of radioisotope iodine [^125 I]-labeled 25-hydroxy vitamin D3 derivative which contains as an antioxidant tocopherol was pipetted into each tube (20 μl, ca. 13,000 cpm).
Anti-25-hydroxy vitamin D3 rabbit serum diluted with tris buffer (approx. 15,000 dilution) pH 8.6, each 1 ml, was added to each tube. Each mixture in the tubes was stirred in a BORTEX mixer and allowed to stand at 5° C. overnight (20-24 hours). Glycine buffer (pH 8.6) suspending a mixture of dextran (T70) and active charcoal (1:10), each 300 μl) was added into the reaction tubes, and each was stirred by a BORTEX mixer and incubated at 5° C. for 1 hour. B-F separation was performed by centrifugation at 3,000 r.p.m. for 10 mins., and each supernatant solution (1 ml) was measured by an Autowell γ-counter for 1 min. The ratio of binding is calculated by the following equation: [formula] wherein (B) is the count number in each tube, (BL) is the count number measured by using 25-hydroxy vitamin D3 (1,000 pg/20 μl) in place of isotope ^125 I-labeled 25-hydroxy vitamin D3 derivative, and (Bo) is the count number measured by using 25-hydroxy vitamin D3 at zero concentration.
A standard curve was prepared by using tritium [^3 H]-labeled 25-hydroxy vitamin D3 derivative (26, 27-methyl-^3 H) as in the case of the [^125 I]-labeled derivative in (1) hereinabove.
Monoiodine [^125 I] labeling and diiodine [^125 I] labeling were compared according to the same method as hereinabove. In FIG. 3, -- -- -- indicates monoiodine [^125 I] labeling, and -- -- -- indicates diiodine [^125 I] labeling.
In formula [IV], assays using compounds having methylene R1 [--CH2)n--] wherein n=1, n=2 and n=3, are compared with each other.

Data set [2] is described as follows: Storage stability of [125I]-labeled derivative, checked by CPBA standard curve using DBP. The class given is physicochemical. To be noted: 50% H2O-ethanol solution, -20° C., argon atmosphere, day 0, 21 and 49; FIG. 6. The method, then: A standard ethanol solution of 25-hydroxy vitamin D3 (1,024 pg/20 μl) was diluted stepwise by two-fold dilutions to prepare 32 pg/20 μl, 16 pg/20 μl, 8 pg/20 μl, 4 pg/20 μl, 2 pg/20 μl and 1 pg/20 μl.
Samples (20 μl) of each concentration hereinabove were pipetted into two tubes. Aliquots of an ethanol solution, each 20 μl, of radioisotope iodine [125I]-labeled 25-hydroxy vitamin D3 derivative, containing as an antioxidant tocopherol, were pipetted into each tube (20 μl, ca. 30,000 cpm) DBP diluted with tris buffer, pH 8.6 (approx. 500-1,000 dilution of DBP fraction in (1) hereinabove) each 500 μl, was stirred and allowed to stand at 4° C. for 16 hours.
Glycine buffer, pH 8.6, suspending a mixture of dextran (T70) and active charcoal (1:10) (each 30 μl), was added into the reaction tubes, stirred and incubated at 4° C. for 30 mins. B-F separation was made by centrifugation at 3,000 r.p.m. for 10 mins. at 4° C., and each supernatant solution 500 μl was measured by an Autowell γ-counterfor 1 min. The ratio of binding is calculated by the following equation: [formula] wherein (B) is the count number in each tube, (NSB)-- is the count number measured by using 25-hydroxy vitamin D3 (1,024 pg/20 μl) instead of ^12 5I-labeled 25-hydroxy vitamin D3 derivative and (Bo) is the count number measured by using 25-hydroxy vitamin D3 at zero concentration.
A 50% H2 O-ethanol solution of [^125 I] […]

For `C=C1CC[C@H](OC(=O)CCNC(=O)CCc2ccc(O)c([125I])c2)C/C1=C/C=C1\CCC[C@]2(C)[C@@H]([C@H](C)CCCC(C)(C)O)CC[C@@H]12` [n=2], the “standard curve result by methylene chain length n in R1” value in data set [1] is reported as “good results as compared with n=1”.
On the same count and under the same terms, the value for `C=C1CC[C@H](OC(=O)CCCNC(=O)CCc2ccc(O)c([125I])c2)C/C1=C/C=C1\CCC[C@]2(C)[C@@H]([C@H](C)CCCC(C)(C)O)CC[C@@H]12` [n=3] was “good results as compared with n=1”.
Consider `C=C1CC[C@H](OC(=O)CCNC(=O)CCc2cc([125I])c(O)c([125I])c2)C/C1=C/C=C1\CCC[C@]2(C)[C@@H]([C@H](C)CCCC(C)(C)O)CC[C@@H]12` [Example 5], for which the “stability: change of standard curve after storage” value in data set [2] is on record as “no changes of the standard curve within a range of 2-32 pg/Test were observed”. In addition, in data set [1], the “sensitivity of assay, monoiodine vs diiodine [125I] labeling” value is given as “almost the same sensitivity”.
For `C=C1CC[C@H](OC(=O)CCNC(=O)CCc2ccc(O)c([125I])c2)C/C1=C/C=C1\CCC[C@]2(C)[C@@H]([C@H](C)CCCC(C)(C)O)CC[C@@H]12` [Example 4, 25-hydroxy vitamin D3 --3β--O--{3-[N-3-(4-hydroxy-3-iodo [^125 I]phenyl)propionyl]amino propionate}], in that order: “no changes of the standard curve within a range of 2-32 pg/Test were observed” and “almost the same sensitivity”.
